# Entries after “also recorded” stand apart in the source; their conditions may differ. Where no end group is shown, it is not given here.
# Columns and labels:
# [1] = test system: C57BL6/KsJ db/db mice; assay: Wound healing in db/db diabetic mice; type: in vivo; conditions: single dose 5 μL of 20 μg/mL at day zero, saline control 14 days
# Source text: Wounds were created in C57BL6/KsJ db/db mice with a 4 mm biopsy punch. The mice were obtained from The Jackson Laboratories and were aged 3-7 months before the onset of the wounding protocol. All mice were anesthetized prior to wounding. Two wounds were introduced onto the upper back of each animal by pulling the skin away from underlying structures and pushing the punch through the isolated skin. Typically, wounds were created to an average depth of 1.7 mm, with a range of 1.3 to 2.2 mm. No muscle involvement occurred during the course of wounding.
# Each day the wounds were digitally photographed and wound areas were determined by computer integration of the photographs. All wound treatments and the subsequent data analyses were performed in a blind manner (see e.g., Brown et al., 1994). Wound area at the time of wounding (day 0) was arbitrarily set to a relative value of 1 for all wounds; such that subsequent wound areas were converted to relative wound areas by dividing the wound area at day n by the wound area at day zero.
# [2] = test system: Human chondrosarcoma cells (SW1351); assay: Chondrosarcoma cell proliferation (CellTiter 96 Aqueous One, absorbance 490 nm); type: cell-based
# Procedure: Human chondrosarcoma cells (SW1351) were purchased from the American Type Culture Collection (ATCC No. HTB-94). A frozen vial of cells was thawed by gentle agitation in a 37° C. water bath for about 2 minutes. The vial was decontaminated with 70% ethanol and the cells were transferred to a T75 flask containing pre-wanned Leibovitz's L-15 medium (ATCC Catalog No. 30-2008) with 10% fetal bovine serum. The culture as incubated at 37° C. until 80% confluence. The culture medium was removed and the cells were dissociated from the T75 flask using 3 ml 0.25% trypsin, 0.03 mM EDTA at 37° C. After incubation for 5 minutes, 8 ml culture medium was added to stop trypsinization. The cells were counted with trypan blue and then seeded in 96 well plates at a density of about 2500 cells/well.
# Six separate cell cultures were tested at each concentration of each peptide (n=6). Control cells received culture medium only.
# Cell cultures were then incubated at 37° C. in an atmosphere of 5% CO2. Cell proliferation was determined after 18 or 72 hr by using the CellTiter 96 Aqueous One Solution purchased from Promega (Catalog No. TB245). Briefly, the CellTiter solution was warmed up to room temperature. Twenty microliters of the solution was added to each well. Cells were incubated at 37° C. for 1-2 hours. The absorbance at 490 nm was then recorded using a 96 well plate reader. The data were statistically analyzed using a Student T test. Differences were considered significant at the level of p<0.05.
# [3] = target: T1, MMP-9 (Homo sapiens, UniProt P14780); assay: Fluoresceinated collagen hydrolysis assay (fluorescein release); type: biochemical; conditions: extended time assay, FIG. 8
# T1 construct: Active MMP-9 enzyme was purchased from Calbiochem; purchased Calbiochem
# Procedure: Two enzymatic assays were performed. The first assay measured the enzymatic hydrolysis of fluoresceinated collagen by MMP-9 as a function of time. […] The protein mixture was added to the collagen substrate, and was quickly mixed. Fluorescence emission intensity at 520 nm was measured as a function of time (excitation wavelength 495 nm) in a Shimadzu RF5301 fluorimeter (Lakowicz, 1983). The fluorescein release assay was used to determine the inhibitory constant (Ki) of the peptide inhibitor ([I]) according to Segel (1993) via the use of Dixon plots (1/v vs. [I]), such that: slope=Km /(V max Ki [S]) (1) where Km is the Michaelis constant, Vmax is the reaction maximum velocity, and [S] is the substrate concentration.
# [4] = target: pro-MMP-9 (Homo sapiens, UniProt P14780); assay: Anti-activation (anti-splicing) assay: conversion of pro-MMP-9 by stromilysin, HPLC; type: biochemical; conditions: 0.5 and 1.0 μM peptide, FIG. 12
# Procedure: The assay measured how much proenzyme was converted into mature matrix metalloproteinase. Proenzyme pro-MMP-9 (100 μg) was mixed with 0.5 μg of stromilysin in PBS. The reaction was incubated at 35° C. Aliquots were removed from the reaction over an 80 minute time course. […] The zero (injection) time point was a single peak that elutes from the column in approximately 750 seconds. This peak reduced in size as a function of time, and two new peaks appeared. The first peak eluted at approximately 800 seconds, and represented the mature form of MMP-9. The second peak eluted at approximately 1100 seconds, and corresponded to the N-terminal pro-domain fragment. Peak areas were determined by integrating over the elution profile, and the percent area changes were plotted.
# The first peak, eluting at approximately 700 seconds, is pro-MMP-9. As the splicing reaction proceeds, this peak decreases in intensity (as marked with the downwards arrow), and two new peaks appear. The first new peak, eluting at approximately 800 seconds, is mature and active MMP-9. The second new peak, eluting at approximately 1050 seconds, is the prodomain. As the splicing reaction proceeds, the intensity of these two peaks increases (as marked with the upwards arrows). When the reaction is complete, there is no detectable pro-MMP-9 remaining.
# pro-MMP-9, sequence (P14780 20-707): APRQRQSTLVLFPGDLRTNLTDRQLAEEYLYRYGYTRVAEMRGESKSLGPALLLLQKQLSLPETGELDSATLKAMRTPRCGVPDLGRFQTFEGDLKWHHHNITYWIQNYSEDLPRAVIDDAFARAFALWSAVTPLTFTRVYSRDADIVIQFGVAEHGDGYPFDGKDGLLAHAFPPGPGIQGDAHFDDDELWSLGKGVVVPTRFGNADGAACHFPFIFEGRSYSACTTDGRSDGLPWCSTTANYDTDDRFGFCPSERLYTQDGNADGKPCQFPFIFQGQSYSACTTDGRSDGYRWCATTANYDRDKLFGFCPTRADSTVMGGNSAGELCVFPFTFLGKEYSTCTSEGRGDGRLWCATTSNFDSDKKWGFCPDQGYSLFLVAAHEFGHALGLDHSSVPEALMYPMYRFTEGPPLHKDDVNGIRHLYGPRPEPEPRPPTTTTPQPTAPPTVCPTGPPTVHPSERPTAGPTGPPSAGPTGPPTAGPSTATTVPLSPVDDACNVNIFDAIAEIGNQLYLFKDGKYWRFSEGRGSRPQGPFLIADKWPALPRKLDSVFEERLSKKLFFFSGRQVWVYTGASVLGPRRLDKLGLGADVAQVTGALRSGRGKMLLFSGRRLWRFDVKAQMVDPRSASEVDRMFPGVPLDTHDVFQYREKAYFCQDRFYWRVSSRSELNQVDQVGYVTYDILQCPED
# T1 sequence (P14780 107-707 limits assumed): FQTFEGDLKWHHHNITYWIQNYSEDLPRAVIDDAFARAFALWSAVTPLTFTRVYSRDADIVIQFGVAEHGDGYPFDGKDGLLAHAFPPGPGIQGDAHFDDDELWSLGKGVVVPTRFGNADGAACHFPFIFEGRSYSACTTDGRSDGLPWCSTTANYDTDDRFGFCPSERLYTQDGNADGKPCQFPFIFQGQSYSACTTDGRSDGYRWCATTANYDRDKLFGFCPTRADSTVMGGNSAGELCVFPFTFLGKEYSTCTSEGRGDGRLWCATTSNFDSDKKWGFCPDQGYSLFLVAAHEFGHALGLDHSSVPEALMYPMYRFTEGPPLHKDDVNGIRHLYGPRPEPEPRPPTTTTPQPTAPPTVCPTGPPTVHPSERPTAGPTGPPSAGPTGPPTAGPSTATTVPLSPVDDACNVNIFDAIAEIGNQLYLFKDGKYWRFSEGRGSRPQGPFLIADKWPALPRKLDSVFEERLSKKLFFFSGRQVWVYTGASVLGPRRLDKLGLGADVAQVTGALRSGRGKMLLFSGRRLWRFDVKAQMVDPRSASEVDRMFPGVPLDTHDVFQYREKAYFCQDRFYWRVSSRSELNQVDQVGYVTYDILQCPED
Molecule,time to full wound closure post wounding [1],"chondrosarcoma cell proliferation vs untreated cells ([2]; 18 hours, 10^−4 M, p<0.05)","chondrosarcoma cell proliferation vs untreated cells ([2]; 72 hours, 10^−4 M, p<0.05)",period of time of effective inhibition of MMP-9 catalyzed hydrolysis of collagen [3],inhibition of splicing (conversion of pro-MMP-9 into prodomain and active enzyme) [4],"chondrosarcoma cell proliferation vs untreated cells ([2]; 18 hr, three concentrations tested (10^−6, 10^−5, 10^−4 M))","chondrosarcoma cell proliferation vs untreated cells ([2]; 72 hours, 10^−5 M, p<0.05)"
CC(C)[C@H](NC(=O)[C@H](CC(=O)O)NC(=O)[C@@H]1CCCN1C(=O)[C@H](CC(N)=O)NC(=O)CNC(=O)[C@H](CS)NC(=O)[C@H](CCCNC(=N)N)NC(=O)[C@@H]1CCCN1)C(=O)N[C@@H](C)C(=O)N[C@@H](CC(N)=O)C(=O)N[C@@H](Cc1ccc(O)cc1)C(=O)N[C@@H](CC(N)=O)C(=O)N[C@@H](Cc1ccccc1)C(=O)N[C@@H](Cc1ccccc1)C(=O)N1CCC[C@H]1C(=O)N[C@@H](CCCNC(=N)N)C(=O)N[C@@H](CCCCN)C(=O)N1CCC[C@H]1C(=O)N[C@@H](CCCCN)C(=O)O [19-mer],9 days,significantly inhibits or depresses growth; also recorded: significantly inhibited,substantially less,> 1000 min,inhibited in a dose dependent manner,–,–
NYNFFPRKPK [10-mer],–,–,substantially less,–,–,did not show any significant effect,–
PRCGNPDVA [9-mer],–,significantly inhibits or depresses growth; also recorded: significantly inhibited,substantially less,–,–,–,significantly reduced
